Reference: US20050182025A1, “Amidinylphenyl compounds and their use as fungicides” (priority 2002, published 2005)

Key:
Format in all cases: in vivo
[1] = system: Erysiphe graminis f. sp. tritici; experiment: Test A: preventive spray on wheat seedlings, wheat powdery mildew, disease rating; conditions: wheat seedlings sprayed to run-off, inoculated the following day with Erysiphe graminis f. sp. tritici, rated after 7 days at 20° C.; test concentration not given
From the text: General protocol for preparing test suspensions: Test compounds were first dissolved in acetone in an amount equal to 3% of the final volume and then suspended at the desired concentration (in ppm) in acetone and purified water (50/50 mix) containing 250 ppm of the surfactant Trem® 014 (polyhydric alcohol esters). The resulting test suspensions were then used in the following tests. Spraying a 200 ppm test suspension to the point of run-off on the test plants was the equivalent of a rate of 500 g/ha. The test suspension was sprayed to the point of run-off on wheat seedlings. The following day the seedlings were inoculated with a spore dust of Erysiphe graminis f. sp. tritici, (the causal agent of wheat powdery mildew) and incubated in a growth chamber at 20° C. for 7 days, after which disease ratings were made. Results for Tests A-C are given in Table A. In the table, a rating of 100 indicates 100% disease control and a rating of 0 indicates no disease control (relative to the controls). A dash (-) indicates no test results.

Puccinia recondita = experiment: Test B: preventive spray on wheat seedlings, wheat leaf rust, disease rating; conditions: wheat seedlings sprayed to run-off, inoculated the following day with Puccinia recondita, 24 h saturated atmosphere then 6 days at 20° C.; test concentration not given
From the text: (§1) General protocol for preparing test suspensions: Test compounds were first dissolved in acetone in an amount equal to 3% of the final volume and then suspended at the desired concentration (in ppm) in acetone and purified water (50/50 mix) containing 250 ppm of the surfactant Trem® 014 (polyhydric alcohol esters). The resulting test suspensions were then used in the following tests. Spraying a 200 ppm test suspension to the point of run-off on the test plants was the equivalent of a rate of 500 g/ha. The test suspension was sprayed to the point of run-off on wheat seedlings. The following day the seedlings were inoculated with a spore suspension of Puccinia recondita (the causal agent of wheat leaf rust) and incubated in a saturated atmosphere at 20° C. for 24 h, and then moved to a growth chamber at 20° C. for 6 days, after which disease ratings were made. Results for Tests A-C are given in Table A. In the table, a rating of 100 indicates 100% disease control and a rating of 0 indicates no disease control (relative to the controls). A dash (-) indicates no test results.

Septoria nodorum = experiment: Test C: preventive spray on wheat seedlings, Septoria glume blotch, disease rating; conditions: wheat seedlings sprayed to run-off, inoculated the following day with Septoria nodorum, 48 h saturated atmosphere then 9 days at 20° C.; test concentration not given
From the text: as §1, with “Septoria nodorum” for “Puccinia recondita”, “Septoria glume blotch)” for “wheat leaf rust)”, “48” for “24”, “9” for “6”

SMILES	Test A disease control rating (100 = 100% disease control, 0 = no disease control relative to the controls) [1]	Test B disease control rating (100 = 100% disease control, 0 = no disease control relative to the controls) (Puccinia recondita)	Test C disease control rating (100 = 100% disease control, 0 = no disease control relative to the controls) (Septoria nodorum)
CCCCCCCCCCCCOc1cc(C)c(N=CN(C)C)cc1C [Compound 25]	0%	90%	0%
Cc1cc(OCCC[Si](C)(C)C)c(C)cc1N=CN(C)C [Compound 26, N′-[2,5-Dimethyl-4-[3-(trimethylsilyl)propoxy]phenyl]-N,N-dimethylmethanimidamide]	98%	100%	100%
Cc1cc(OCCCO[Si](C)(C)C(C)(C)C)c(C)cc1N=CN(C)C [Compound 27]	99%	100%	100%
CCCCC(CCCC)Oc1cc(C)c(N=CN(C)C)cc1C [Compound 28, N′-[4-[(1-Butylpentyl)oxy]-2,5-dimethylphenyl]-N,N-dimethylmethanimidamide]	0%	97%	0%
CCCCC(CCC)Oc1cc(C)c(N=CN(C)C)cc1C (stereo not drawn) [Compound 29]	99%	100%	58%
CCCCCC(CCCCC)Oc1cc(C)c(N=CN(C)C)cc1C [Compound 30]	0%	100%	0%
CCC(CCC(C)C)Oc1cc(C)c(N=CN(C)C)cc1C (stereo not drawn) [Compound 31]	93%	100%	53%
Cc1cc(OC(C)CCC(C)C)c(C)cc1N=CN(C)C (stereo not drawn) [Compound 32]	97%	100%	95%
CCCC(CCC(C)C)Oc1cc(C)c(N=CN(C)C)cc1C (stereo not drawn) [Compound 33]	95%	100%	0%
CCC(CC)Oc1cc(C)c(N=CN(C)C)cc1C [Compound 34]	96%	100%	0%
Cc1cc(OC(CCC(C)C)CCC(C)C)c(C)cc1N=CN(C)C [Compound 35]	95%	100%	100%
CCCC(CCC)Oc1cc(C)c(N=CN(C)C)cc1C [Compound 36]	88%	100%	0%
C=C(COc1cc(C)c(N=CN(C)C)cc1C)C[Si](C)(C)C [Compound 38]	96%	100%	20%
CC(C)=CCCOc1cc(C)c(N=CN(C)C)cc1C [Compound 39]	0%	100%	94%
Cc1cc(OCC=CC(C)(C)C)c(C)cc1N=CN(C)C [Compound 40]	97%	100%	100%
Cc1cc(OCCOC(C)(C)C)c(C)cc1N=CN(C)C [Compound 41]	79%	99%	47%
COC(C)(C)CCCOc1cc(C)c(N=CN(C)C)cc1C [Compound 43]	96%	100%	93%
CCOC(C)(C)CCCOc1cc(C)c(N=CN(C)C)cc1C [Compound 44]	99%	100%	99%
Cc1cc(OCCCC(C)(C)O)c(C)cc1N=CN(C)C [Compound 45]	0%	80%	0%
Cc1cc(OCCCC(C)(Cl)C(C)C)c(C)cc1N=CN(C)C (stereo not drawn) [Compound 46]	97%	100%	97%
Cc1cc(OCCCCC(C)(C)C#N)c(C)cc1N=CN(C)C [Compound 47]	29%	99%	80%
Cc1cc(OCCCCC(C)C)c(C)cc1N=CN(C)C [Compound 48]	99%	100%	96%
Cc1cc(OCCCC(C)C(C)C)c(C)cc1N=CN(C)C (stereo not drawn) [Compound 49]	99%	99%	83%
